Assay [1] has as its target T1, Phosphorylase b kinase gamma catalytic chain, liver/testis isoform (Homo sapiens) (UniProt P15735).
T1 sequence (whole entry): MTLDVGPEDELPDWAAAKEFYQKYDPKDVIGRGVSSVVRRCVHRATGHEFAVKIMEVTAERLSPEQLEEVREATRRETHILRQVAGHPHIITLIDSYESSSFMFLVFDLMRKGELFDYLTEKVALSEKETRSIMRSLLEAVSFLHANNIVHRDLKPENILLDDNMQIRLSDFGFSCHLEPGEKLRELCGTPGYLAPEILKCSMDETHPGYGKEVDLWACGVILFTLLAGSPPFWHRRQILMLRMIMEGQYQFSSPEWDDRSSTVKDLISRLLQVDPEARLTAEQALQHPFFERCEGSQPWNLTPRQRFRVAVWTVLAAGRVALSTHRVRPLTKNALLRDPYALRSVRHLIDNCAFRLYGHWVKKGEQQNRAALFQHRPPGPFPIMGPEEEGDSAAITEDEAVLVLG
As to the kind of experiment: Selectivity interaction (KinomeScan (DiscoverX)) EUB0000595a PHKG2. Particulars: at 10 µM.

Assay [2] deals with Serine/threonine-protein kinase MARK2 (Homo sapiens) (UniProt Q7KZI7). As to the kind of experiment: Selectivity interaction (ActivX KiNativ screen (kinase selectivity in THP-1 cell lysates)) EUB0000639a MARK2. It counts as subcellular. Particulars: lysate, at 5 µM.
Sequence of Serine/threonine-protein kinase MARK2 (Homo sapiens) (Q7KZI7 whole entry): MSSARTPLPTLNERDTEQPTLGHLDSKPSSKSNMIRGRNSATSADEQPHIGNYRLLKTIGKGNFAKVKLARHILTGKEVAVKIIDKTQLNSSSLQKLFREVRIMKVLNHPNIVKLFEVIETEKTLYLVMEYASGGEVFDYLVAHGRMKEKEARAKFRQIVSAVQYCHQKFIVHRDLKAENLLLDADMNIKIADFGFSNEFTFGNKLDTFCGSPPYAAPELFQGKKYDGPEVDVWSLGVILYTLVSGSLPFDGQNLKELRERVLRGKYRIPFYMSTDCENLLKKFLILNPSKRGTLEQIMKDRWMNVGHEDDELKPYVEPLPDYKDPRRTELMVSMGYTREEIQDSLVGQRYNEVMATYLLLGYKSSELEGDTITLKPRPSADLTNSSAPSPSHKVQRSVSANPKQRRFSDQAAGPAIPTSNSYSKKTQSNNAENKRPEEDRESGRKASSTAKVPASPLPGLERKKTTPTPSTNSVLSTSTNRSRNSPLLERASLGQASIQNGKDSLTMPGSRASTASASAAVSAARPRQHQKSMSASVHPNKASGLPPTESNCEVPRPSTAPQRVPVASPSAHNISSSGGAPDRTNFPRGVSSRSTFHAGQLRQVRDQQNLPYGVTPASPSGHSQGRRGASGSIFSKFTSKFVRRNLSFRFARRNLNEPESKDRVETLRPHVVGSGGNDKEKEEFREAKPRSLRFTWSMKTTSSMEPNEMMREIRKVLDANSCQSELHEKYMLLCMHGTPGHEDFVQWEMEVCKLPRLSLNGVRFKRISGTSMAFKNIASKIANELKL
The target of assay [3] is T2, Serine/threonine-protein kinase D3 (Homo sapiens) (UniProt O94806).
T2 sequence (whole entry): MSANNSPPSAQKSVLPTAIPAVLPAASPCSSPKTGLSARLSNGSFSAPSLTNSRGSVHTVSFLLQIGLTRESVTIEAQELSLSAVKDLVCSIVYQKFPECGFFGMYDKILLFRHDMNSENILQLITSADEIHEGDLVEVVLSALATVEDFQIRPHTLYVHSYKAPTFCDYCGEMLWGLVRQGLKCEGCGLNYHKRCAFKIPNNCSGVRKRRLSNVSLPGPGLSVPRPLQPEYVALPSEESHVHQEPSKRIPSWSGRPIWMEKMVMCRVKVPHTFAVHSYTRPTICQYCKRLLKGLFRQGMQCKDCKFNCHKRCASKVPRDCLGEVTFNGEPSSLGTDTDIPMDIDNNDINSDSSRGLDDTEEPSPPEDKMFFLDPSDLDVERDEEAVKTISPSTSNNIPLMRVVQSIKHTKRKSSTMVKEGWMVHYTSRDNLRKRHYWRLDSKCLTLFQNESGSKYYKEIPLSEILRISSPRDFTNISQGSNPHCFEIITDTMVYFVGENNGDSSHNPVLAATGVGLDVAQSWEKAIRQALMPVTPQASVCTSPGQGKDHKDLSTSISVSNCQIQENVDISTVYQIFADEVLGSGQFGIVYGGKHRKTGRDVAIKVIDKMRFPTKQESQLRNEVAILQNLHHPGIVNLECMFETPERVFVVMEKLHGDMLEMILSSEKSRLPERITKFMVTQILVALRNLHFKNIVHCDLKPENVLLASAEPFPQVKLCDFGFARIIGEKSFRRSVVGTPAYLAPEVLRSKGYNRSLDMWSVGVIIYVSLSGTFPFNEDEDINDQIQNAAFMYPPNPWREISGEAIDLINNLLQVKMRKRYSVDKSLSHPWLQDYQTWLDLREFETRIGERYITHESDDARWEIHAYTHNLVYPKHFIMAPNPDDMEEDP
Kind of assay: Selectivity interaction (ActivX KiNativ screen (kinase selectivity in THP-1 cell lysates)) EUB0000639a PRKD3. It is filed as subcellular. To be noted: lysate, at 0.01 µM.

Assay [4] addresses T3, Serine/threonine-protein kinase BRSK1 (Homo sapiens) (UniProt Q8TDC3).
T3 sequence (whole entry): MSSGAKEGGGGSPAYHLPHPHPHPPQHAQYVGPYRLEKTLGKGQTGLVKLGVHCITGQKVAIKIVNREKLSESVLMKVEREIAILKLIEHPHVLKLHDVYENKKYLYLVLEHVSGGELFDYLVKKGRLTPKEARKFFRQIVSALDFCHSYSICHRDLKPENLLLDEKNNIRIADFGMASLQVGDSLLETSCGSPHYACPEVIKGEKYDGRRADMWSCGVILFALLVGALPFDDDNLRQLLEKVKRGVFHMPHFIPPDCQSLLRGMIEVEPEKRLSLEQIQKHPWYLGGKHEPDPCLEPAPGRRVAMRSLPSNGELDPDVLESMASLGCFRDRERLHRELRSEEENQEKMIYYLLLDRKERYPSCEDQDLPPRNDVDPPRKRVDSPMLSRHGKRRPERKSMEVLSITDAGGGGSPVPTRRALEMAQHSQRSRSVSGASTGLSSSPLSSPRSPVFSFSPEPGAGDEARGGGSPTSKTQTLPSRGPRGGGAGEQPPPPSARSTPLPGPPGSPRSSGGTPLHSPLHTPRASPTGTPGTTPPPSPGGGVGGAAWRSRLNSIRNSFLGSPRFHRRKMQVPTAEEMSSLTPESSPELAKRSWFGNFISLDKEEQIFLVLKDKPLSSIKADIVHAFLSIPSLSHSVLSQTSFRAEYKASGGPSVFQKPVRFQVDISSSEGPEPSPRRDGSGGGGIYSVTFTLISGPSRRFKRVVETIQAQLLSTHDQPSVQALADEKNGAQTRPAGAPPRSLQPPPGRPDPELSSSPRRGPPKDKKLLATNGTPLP
As to the kind of experiment: Selectivity interaction (KinomeScan (DiscoverX)) EUB0000655a BRSK1. Particulars: at 10 µM.

For assay [5], the target named is cAMP-dependent protein kinase catalytic subunit alpha (Homo sapiens, UniProt P17612). As to the kind of experiment: Selectivity interaction (KinomeScan (DiscoverX)) EUB0000655a PRKACA. To be noted: at 10 µM.
Assay [6] deals with Serine/threonine-protein kinase SBK1 (Homo sapiens) (UniProt Q52WX2). As to the kind of experiment: Selectivity interaction (KinomeScan (DiscoverX)) EUB0001079a SBK1. To be noted: at 1 µM.
Sequence of Serine/threonine-protein kinase SBK1 (Homo sapiens) (Q52WX2 whole entry): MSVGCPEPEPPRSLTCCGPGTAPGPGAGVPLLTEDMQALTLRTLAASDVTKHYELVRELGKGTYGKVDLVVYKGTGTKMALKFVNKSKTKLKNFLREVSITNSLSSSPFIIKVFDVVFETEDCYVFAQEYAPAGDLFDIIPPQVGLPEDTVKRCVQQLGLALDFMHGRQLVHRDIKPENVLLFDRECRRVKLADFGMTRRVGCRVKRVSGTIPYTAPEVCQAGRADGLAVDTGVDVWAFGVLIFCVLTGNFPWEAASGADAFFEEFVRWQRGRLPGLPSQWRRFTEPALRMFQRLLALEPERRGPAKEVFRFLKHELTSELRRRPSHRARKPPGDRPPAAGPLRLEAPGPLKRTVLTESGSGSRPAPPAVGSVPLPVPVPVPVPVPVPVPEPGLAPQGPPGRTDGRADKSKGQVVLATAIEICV

This passage reports % of control and % of inhibition results from ChEMBL document CHEMBL5465560, “Selectivity Literature for EUbOPEN Chemogenomic Library” (2024).

As to `COCC(=O)NC/C=C/c1ccc2ncnc(Nc3ccc(Oc4ccc(C)nc4)c(C)c3)c2c1` [CP-724714], the % of control in assay [1] came out at 86%. As for `CC[C@@H]1[C@H](F)C(=O)N[C@@H]1COc1nccc2cc(C(N)=O)c(OC)cc12` [ZIMLOVISERTIB], the % of inhibition was found to be 45.6% in assay [2] and 0% in assay [3].

In the case of `CN(C)CCOc1ccc(-c2nc(-c3ccncc3)c(-c3ccc4c(c3)CC/C4=N\O)[nH]2)cc1`, the values for the % of control in assay [4] and in assay [5] were 76% and 67%, respectively. On to `Nc1cnc(N2CCc3cc(S(=O)(=O)Nc4c(F)cc(Cl)cc4F)cc(N4CCCC4=O)c32)nc1` [TP-020n], for which the % of control in assay [6] turned out to be 83%.
